Measured values reported in PubChem BioAssay (NCI).
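Dose response: 5 concentrations. Exposure: 48 h. Format: 96-well plates. Endpoint: linear interpolation; highest concentration if not reached. Definition used: TGI = concentration required for complete inhibition of growth.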

Key:
Assay in all cases: growth of human tumour cells (NCI), 48 h
IGROV1 ovarian = tested on: IGROV1 ovarian
EKVX NSCLC = tested on: EKVX NSCLC
RXF 393 renal = tested on: RXF 393 renal
SNB-75 CNS = tested on: SNB-75 CNS
SK-MEL-28 melanoma = tested on: SK-MEL-28 melanoma
SW-620 colon = tested on: SW-620 colon
NCI-H226 lung = tested on: NCI-H226 lung
SF-268 CNS = tested on: SF-268 CNS
UO-31 renal = tested on: UO-31 renal
MALME-3M melanoma = tested on: MALME-3M melanoma
OVCAR-5 ovarian = tested on: OVCAR-5 ovarian
SF-539 CNS = tested on: SF-539 CNS
K-562 leukemia = tested on: K-562 leukemia
LOX IMVI melanoma = tested on: LOX IMVI melanoma
HOP-62 NSCLC = tested on: HOP-62 NSCLC
SF-295 CNS = tested on: SF-295 CNS
A549 NSCLC = tested on: A549 NSCLC
HCT-116 colon = tested on: HCT-116 colon
TK-10 renal = tested on: TK-10 renal
UACC-257 melanoma = tested on: UACC-257 melanoma

How did the TGI (IGROV1 ovarian) turn out when `CC(C)(C)c1cc(C2NC(=O)NC2=O)cc(C(C)(C)C)c1O` (centres undefined) was run?
The TGI was over 100 µM.

What about the TGI (EKVX NSCLC) of the same compound?
The TGI was over 100 µM.

What about the TGI (RXF 393 renal) of the same compound?
Its TGI is 95.7 µM.

What about the TGI (SNB-75 CNS) of the same compound?
The TGI was 84.4 µM.

What about the TGI (SK-MEL-28 melanoma) of the same compound?
The TGI was over 100 µM.

And the TGI (SW-620 colon)?
Its TGI is over 100 µM.

What about the TGI (NCI-H226 lung) of the same compound?
Its TGI is over 100 µM.

And the TGI (SF-268 CNS)?
The TGI was over 100 µM.

What about the TGI (UO-31 renal) of the same compound?
The TGI was over 100 µM.

What about the TGI (MALME-3M melanoma) of the same compound?
The TGI was over 100 µM.

And the TGI (OVCAR-5 ovarian)?
Its TGI is over 100 µM.

What about the TGI (SF-539 CNS) of the same compound?
The TGI was over 100 µM.

What about the TGI (K-562 leukemia) of the same compound?
Its TGI is over 100 µM.

And the TGI (LOX IMVI melanoma)?
The TGI was over 100 µM.

And the TGI (HOP-62 NSCLC)?
The TGI was over 100 µM.

What about the TGI (SF-295 CNS) of the same compound?
The TGI was over 100 µM.

And the TGI (A549 NSCLC)?
The TGI was over 100 µM.

And the TGI (HCT-116 colon)?
Its TGI is 84.5 µM.

What about the TGI (TK-10 renal) of the same compound?
The TGI was 95.2 µM.

With `CC(=O)OC1C(O)C(C)OC(OC(=O)C2CCC3C(C2)OC2(CC(OC(=O)/C=C/c4ccccc4)C(C)CO2)C32CO2)C1OC1OC(C)C(O)C(O)C1O` (centres undefined) as the compound, how does the TGI (UACC-257 melanoma) read?
The TGI was 0.0726 µM.

And the TGI (IGROV1 ovarian)?
Its TGI is 0.131 µM.

What about the TGI (EKVX NSCLC) of the same compound?
The TGI was 0.246 µM.

And the TGI (RXF 393 renal)?
The TGI was 0.208 µM.

What about the TGI (SNB-75 CNS) of the same compound?
The TGI was 0.135 µM.

What about the TGI (SK-MEL-28 melanoma) of the same compound?
The TGI was 0.0685 µM.

And the TGI (SW-620 colon)?
The TGI was 0.568 µM.

What about the TGI (NCI-H226 lung) of the same compound?
Its TGI is 0.1 µM.

What about the TGI (SF-268 CNS) of the same compound?
The TGI was 0.15 µM.

And the TGI (UO-31 renal)?
Its TGI is 33.2 µM.

And the TGI (MALME-3M melanoma)?
The TGI was 0.093 µM.

What about the TGI (OVCAR-5 ovarian) of the same compound?
The TGI was 1.24 µM.

And the TGI (SF-539 CNS)?
The TGI was 0.105 µM.

What about the TGI (K-562 leukemia) of the same compound?
Its TGI is 2.29 µM.

What about the TGI (LOX IMVI melanoma) of the same compound?
The TGI was 0.362 µM.

What about the TGI (HOP-62 NSCLC) of the same compound?
The TGI was 0.223 µM.

What about the TGI (SF-295 CNS) of the same compound?
The TGI was 0.542 µM.

What about the TGI (A549 NSCLC) of the same compound?
The TGI was 1.3 µM.

What about the TGI (HCT-116 colon) of the same compound?
Its TGI is 0.709 µM.

Which results are given for `COc1cc(-c2coc3c(OC)c(OC4OC(COC5OC(C)C(O)C(O)C5O)C(O)C(O)C4O)c(OC)c(O)c3c2=O)cc(C)c1O` (centres undefined)?
TGI (UACC-257 melanoma): 68.2 µM; TGI (IGROV1 ovarian): 53.1 µM; TGI (EKVX NSCLC): 38 µM; TGI (RXF 393 renal): 32.5 µM; TGI (SNB-75 CNS): 69.6 µM; TGI (SK-MEL-28 melanoma): 34.4 µM; TGI (SW-620 colon): 30.9 µM; TGI (SF-268 CNS): 62.2 µM; TGI (UO-31 renal): 50.5 µM; TGI (MALME-3M melanoma): 33.9 µM; TGI (OVCAR-5 ovarian): 45.5 µM; TGI (SF-539 CNS): 39 µM; TGI (K-562 leukemia): 34.6 µM; TGI (LOX IMVI melanoma): 45.3 µM; TGI (HOP-62 NSCLC): 81.9 µM; TGI (SF-295 CNS): 38 µM; TGI (A549 NSCLC): > 100 µM; TGI (TK-10 renal): > 100 µM

With `O=c1cc2cc(O)[nH]c(=O)c2c(O)[nH]1` as the compound, how does the TGI (UACC-257 melanoma) read?
The TGI was over 100 µM.

And the TGI (IGROV1 ovarian)?
Its TGI is over 100 µM.

And the TGI (RXF 393 renal)?
Its TGI is over 100 µM.

And the TGI (SNB-75 CNS)?
The TGI was over 100 µM.

And the TGI (SW-620 colon)?
The TGI was over 100 µM.

And the TGI (NCI-H226 lung)?
The TGI was over 100 µM.

And the TGI (SF-268 CNS)?
The TGI was over 100 µM.

What about the TGI (UO-31 renal) of the same compound?
Its TGI is over 100 µM.

And the TGI (MALME-3M melanoma)?
Its TGI is over 100 µM.

What about the TGI (OVCAR-5 ovarian) of the same compound?
The TGI was over 100 µM.

What about the TGI (SF-539 CNS) of the same compound?
Its TGI is over 100 µM.

What about the TGI (K-562 leukemia) of the same compound?
Its TGI is over 100 µM.

What about the TGI (LOX IMVI melanoma) of the same compound?
The TGI was over 100 µM.

What about the TGI (HOP-62 NSCLC) of the same compound?
Its TGI is over 100 µM.

What about the TGI (SF-295 CNS) of the same compound?
Its TGI is over 100 µM.

What about the TGI (A549 NSCLC) of the same compound?
The TGI was over 100 µM.

What about the TGI (HCT-116 colon) of the same compound?
Its TGI is over 100 µM.

What about the TGI (TK-10 renal) of the same compound?
The TGI was over 100 µM.
